21 compounds from ChEMBL document CHEMBL1147482, “Novel and potent transforming growth factor beta type I receptor kinase domain inhibitor: 7-amino 4-(2-pyridin-2-yl-5,6-dihydro-4H-pyrrolo[1,2-b]pyrazol-3-yl)-quinolines” (Bioorg Med Chem Lett, 2004) can be followed below.

In test [1] the test system is NIH3T3. The test is described as follows: Inhibitory activity tested in NIH 3T3 cells. It is filed as functional, cell-based. The conditions noted are these: Mus musculus.
The nature of test [2]: Inhibitory activity against TGF-beta dependent luciferase production in mink lung cells p3TP Lux. It is filed as functional, cell-based.
Test [3] addresses Mitogen-activated protein kinase 14 (Homo sapiens, UniProt Q16539). The test is described as follows: Inhibitory activity against Mitogen-activated protein kinase p38.

Sequence of Mitogen-activated protein kinase 14 (Q16539 whole entry): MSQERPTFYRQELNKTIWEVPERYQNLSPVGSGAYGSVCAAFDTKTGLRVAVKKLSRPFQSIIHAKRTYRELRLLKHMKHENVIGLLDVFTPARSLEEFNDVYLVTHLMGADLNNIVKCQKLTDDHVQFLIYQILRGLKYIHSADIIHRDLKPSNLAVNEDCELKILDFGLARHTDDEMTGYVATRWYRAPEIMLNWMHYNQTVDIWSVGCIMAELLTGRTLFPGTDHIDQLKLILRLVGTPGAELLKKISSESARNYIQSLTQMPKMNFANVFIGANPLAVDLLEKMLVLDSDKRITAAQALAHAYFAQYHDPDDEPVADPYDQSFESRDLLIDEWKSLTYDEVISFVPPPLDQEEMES

Consider `CCSc1ccc2c(-c3c(-c4ccccn4)nn4c3CCC4)ccnc2c1`, for which the IC50 amounted to 326 nM in test [1], 285 nM in test [2] and 1600 nM in test [3].
As for `Fc1ccc(-c2c(-c3ccccn3)nn3c2CCC3)cc1`, the IC50 was 3330 nM in test [1], 3860 nM in test [2] and greater than 20000 nM in test [3].
On to `CCS(=O)(=O)c1ccc2c(-c3c(-c4ccccn4)nn4c3CCC4)ccnc2c1`, for which the IC50 is greater than 20000 nM in test [2] and 9800 nM in test [3].
Turning to `Cc1cccc(-c2nn3c(c2-c2ccc(S(C)(=O)=O)cc2)CCC3)n1`, the IC50 in test [1] and in test [2] was greater than 20000 nM in each case.
As to `Cc1cccc(-c2n[nH]cc2-c2ccc(O)cc2)n1`, in test [3], the IC50 was found to be 31000 nM.
As for `Fc1ccc(-c2c(-c3cccc(C(F)(F)F)n3)nn3c2CCC3)cc1`, the results for the IC50 in test [1] and in test [2] were 1200 nM and 2550 nM, respectively.
Turning to `Cc1cccc(-c2nn3c(c2-c2ccc(F)cc2)CCC3)n1`, the results for the IC50 in test [1], in test [2] and in test [3] were 339 nM, 96 nM and greater than 20000 nM, respectively.
On to `Cc1cccc(-c2nn3c(c2-c2ccnc4ccccc24)CCC3)n1`, for which the IC50 in test [1] came out at 280 nM; in test [2], 94 nM; in test [3], 680 nM.
In the case of `Cc1cccc(-c2nn3c(c2-c2ccnc4cc(Cl)ccc24)CCC3)n1`, the results for the IC50 in test [1], in test [2] and in test [3] were 727 nM, 93 nM and 440 nM, respectively.
With `c1ccc(-c2nn3c(c2-c2ccnc4ccccc24)CCC3)nc1`, the results for the IC50 in test [1], in test [2] and in test [3] were 51000 nM, 345 nM and 7900 nM, respectively.
Consider `Clc1ccc2c(-c3c(-c4ccccn4)nn4c3CCC4)ccnc2c1`, for which the IC50 in test [1] stood at 282 nM; in test [2], 196 nM; in test [3] it was 1800 nM.
On to `Fc1ccc(-c2nn3c(c2-c2ccnc4ccccc24)CCC3)nc1`, for which the IC50 stood at 664 nM in test [1], 475 nM in test [2] and 11000 nM in test [3].
With `Cc1cccc(-c2nn3c(c2-c2ccc(F)c(F)c2)CCC3)n1`, the results for the IC50 in test [1] and in test [2] were 1040 nM and 1510 nM, respectively.
As for `COc1ccc(-c2c(-c3cccc(C)n3)nn3c2CCC3)cc1`, the results for the IC50 in test [1], in test [2] and in test [3] were 397 nM, 304 nM and 4600 nM, respectively.
Take `CC(C)c1cccc(-c2nn3c(c2-c2ccnc4ccccc24)CCC3)n1`: the IC50 in test [1] stood at 2000 nM; in test [2], 2000 nM; in test [3] it was 15000 nM.
Regarding `Cc1ccc(-c2c(-c3cccc(C)n3)nn3c2CCC3)cc1`, the IC50 in test [1] and in test [2] was greater than 20000 nM throughout.
With `OCc1cccc(-c2nn3c(c2-c2ccc(F)cc2)CCC3)n1`, the IC50 in test [1] worked out at 5620 nM; in test [2] it was 11800 nM.
For the compound `COc1ccc(-c2c(-c3ccccn3)nn3c2CCC3)cc1`, the IC50 in test [1] stood at 4710 nM; in test [2], 6830 nM.
Regarding `CCOc1ccc2c(-c3c(-c4cccc(C)n4)nn4c3CCC4)ccnc2c1`, the IC50 in test [1] worked out at 152 nM; in test [2], 86 nM; in test [3] it was 59 nM.
With `Cc1cccc(-c2nn3c(c2-c2ccc(O)cc2)CCC3)n1`, the IC50 in test [1] worked out at 105 nM; in test [2] it was 22 nM; in test [3] it was 4300 nM.
For `CCc1cccc(-c2nn3c(c2-c2ccnc4ccccc24)CCC3)n1`, in that order: 500 nM, 143 nM and 620 nM.
